The supplement of paper PMC8671470

Experiments:
Conditions in all cases: 72 h
KCL-22 = test system: KCL-22
Outline: (§1)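 Fifteen myeloid leukaemia lines were incubated for 72 h at 37 °C with 5% CO2 across five tenfold doses from 1 to 10,000 nM, in duplicate. ATP luminescence was normalised to vehicle and to a positive control at 10 µM and fitted with a four-parameter log-logistic model. The IC50 came from these dose–response fits.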

KG-1 = test system: KG-1
Outline: as §1

MOLM-13 = test system: MOLM-13
Outline: as §1

Mono-Mac-6 = test system: Mono-Mac-6
Outline: as §1

ML-2 = test system: ML-2
Outline: as §1

NOMO-1 = test system: NOMO-1
Outline: as §1

THP-1 = test system: THP-1
Outline: as §1

BV-173 = test system: BV-173
Outline: as §1

K-562 = test system: K-562
Outline: as §1

HEL = test system: HEL
Outline: as §1

LAMA-84 = test system: LAMA-84
Outline: as §1

KU-812 = test system: KU-812
Outline: as §1

HL-60 = test system: HL-60
Outline: as §1

SHI-1 = test system: SHI-1
Outline: as §1

Compound | IC50 (cell viability) (KCL-22) [µM] | IC50 (cell viability) (KG-1) [µM] | IC50 (cell viability) (MOLM-13) [µM] | IC50 (cell viability) (Mono-Mac-6) [µM] | IC50 (cell viability) (ML-2) [µM] | IC50 (cell viability) (NOMO-1) [µM] | IC50 (cell viability) (THP-1) [µM] | IC50 (cell viability) (BV-173) [µM] | IC50 (cell viability) (K-562) [µM] | IC50 (cell viability) (HEL) [µM] | IC50 (cell viability) (LAMA-84) [µM] | IC50 (cell viability) (KU-812) [µM] | IC50 (cell viability) (HL-60) [µM] | IC50 (cell viability) (SHI-1) [µM]
Cn1c2cc(S(C)=O)sc2c2cnn(Cc3cccc(N)c3)c(=O)c21 (stereo unspecified) [TEPP-46] | > 10 | > 10 | > 10 | > 10 | > 10 | > 10 | > 10 | > 10 | > 10 | > 10 | > 10 | > 10 | > 10 | > 10
O=c1oc2c(cc1O)oc(=O)c1cc(O)c(O)c(O)c12 [Galloflavin] | > 10 | > 10 | > 10 | > 10 | > 10 | > 10 | > 10 | > 10 | > 10 | > 10 | > 10 | > 10 | > 10 | > 10
N[C@@H](CCC(=O)N[C@@H](CS)C(=O)NCC(=O)O)C(=O)O [Glutathione] | > 10 | > 10 | > 10 | > 10 | > 10 | > 10 | > 10 | > 10 | > 10 | > 10 | > 10 | > 10 | > 10 | > 10
Cl.OC[C@H]1NC[C@H](O)[C@@H](O)[C@H]1O [Migalastat] | > 10 | > 10 | > 10 | > 10 | > 10 | > 10 | > 10 | > 10 | > 10 | > 10 | > 10 | > 10 | > 10 | > 10
NCc1ccc(S(N)(=O)=O)cc1 [4-Homosulfanilamide] | > 10 | > 10 | > 10 | > 10 | > 10 | > 10 | > 10 | > 10 | > 10 | > 10 | > 10 | > 10 | > 10 | > 10
COc1cc(C2Oc3cc(C4Oc5cc(O)cc(O)c5C(=O)C4O)ccc3OC2CO)ccc1O (stereo unspecified) [Silibinin] | > 10 | > 10 | > 10 | > 10 | > 10 | > 10 | > 10 | > 10 | > 10 | > 10 | > 10 | > 10 | > 10 | > 10
O=C(CCl)N(CCCNC(=O)C(F)(F)F)c1ccc([N+](=O)[O-])cc1 [ML175] | 2.07 | 0.341 | 0.276 | 0.896 | 0.288 | 0.305 | 2.77 | 0.32 | 2.95 | 0.297 | 2.54 | 2.23 | 2.13 | 3.41
CN(C)C(=N)NC(=N)N [Metformin] | > 10 | > 10 | > 10 | > 10 | > 10 | > 10 | > 10 | > 10 | > 10 | > 10 | > 10 | > 10 | > 10 | > 10
OC[C@H]1N[C@@H](c2c[nH]c3c(O)ncnc23)[C@H](O)[C@@H]1O [Forodesine] | > 10 | > 10 | > 10 | > 10 | > 10 | > 10 | > 10 | > 10 | > 10 | > 10 | > 10 | > 10 | > 10 | > 10
O=C(Oc1ccc([N+](=O)[O-])cc1)N1CCC(C(O)(c2ccc3c(c2)OCO3)c2ccc3c(c2)OCO3)CC1 [JZL184] | > 10 | > 10 | > 10 | > 10 | > 10 | > 10 | > 10 | > 10 | > 10 | > 10 | > 10 | > 10 | > 10 | > 10
CC(=O)N1CCN(c2ccc(OC[C@@H]3CO[C@@](Cn4ccnc4)(c4ccc(Cl)cc4Cl)O3)cc2)CC1 (racemic) [Ketoconazole] | 8.91 | 8.35 | > 10 | > 10 | > 10 | > 10 | > 10 | > 10 | > 10 | > 10 | > 10 | > 10 | > 10 | > 10
CCCC(CCC)C(=O)O [Valproic acid] | > 10 | > 10 | > 10 | > 10 | > 10 | > 10 | > 10 | > 10 | > 10 | > 10 | > 10 | > 10 | > 10 | > 10
CNC(=C[N+](=O)[O-])NCCSCc1ccc(CN(C)C)o1 [Ranitidine] | > 10 | > 10 | > 10 | > 10 | > 10 | > 10 | > 10 | > 10 | > 10 | > 10 | > 10 | > 10 | > 10 | > 10
Cc1nc(-c2ccc(OCC(C)C)c(C#N)c2)sc1C(=O)O [Febuxostat] | > 10 | > 10 | > 10 | > 10 | > 10 | > 10 | > 10 | > 10 | > 10 | > 10 | > 10 | > 10 | > 10 | > 10
c1ccc2nc(-c3nnc4sc(-c5cnccn5)nn34)ccc2c1 | > 10 | > 10 | > 10 | > 10 | > 10 | > 10 | > 10 | > 10 | > 10 | > 10 | > 10 | > 10 | > 10 | > 10
CCCCCCCCCCCCCCOc1ccc(C(=O)O)o1 [TOFA] | 8.33 | > 10 | > 10 | > 10 | > 10 | > 10 | > 10 | > 10 | > 10 | > 10 | > 10 | > 10 | > 10 | > 10
O=[As]O[As]=O (stereo unspecified) [Arsenic trioxide] | > 10 | > 10 | 4.97 | 8.74 | > 10 | > 10 | > 10 | 4.7 | > 10 | > 10 | 7.24 | > 10 | 8.69 | 9.09

Compound | IC50 (cell viability) (KCL-22) [µM] | IC50 (cell viability) (KG-1) [µM] | IC50 (cell viability) (MOLM-13) [µM] | IC50 (cell viability) (Mono-Mac-6) [µM] | IC50 (cell viability) (ML-2) [µM] | IC50 (cell viability) (NOMO-1) [µM] | IC50 (cell viability) (THP-1) [µM] | IC50 (cell viability) (BV-173) [µM] | IC50 (cell viability) (K-562) [µM] | IC50 (cell viability) (HEL) [µM] | IC50 (cell viability) (LAMA-84) [µM] | IC50 (cell viability) (KU-812) [µM] | IC50 (cell viability) (HL-60) [µM] | IC50 (cell viability) (SHI-1) [µM]
CC(C)(F)C[C@H](N[C@@H](c1ccc(-c2ccc(S(C)(=O)=O)cc2)cc1)C(F)(F)F)C(=O)NC1(C#N)CC1 [Odanacatib] | > 10 | > 10 | > 10 | > 10 | > 10 | > 10 | > 10 | > 10 | > 10 | > 10 | > 10 | > 10 | > 10 | > 10
CN(C)C(=O)n1nnnc1Cc1ccc(-c2ccccc2)cc1 | 2.92 | 1.17 | 3.38 | 2.48 | 1.5 | 4.43 | 1.74 | 0.422 | 1.88 | 2.41 | 2.45 | 1.89 | 3.63 | 3.74
O[C@H]1[C@H](O)[C@@H](O)CN2CC[C@H](O)[C@H]12 [Castanospermine] | > 10 | > 10 | > 10 | > 10 | > 10 | > 10 | > 10 | > 10 | > 10 | > 10 | > 10 | > 10 | > 10 | > 10
O=NN(CCCl)C(=O)NCCCl [Carmustine] | > 10 | > 10 | > 10 | > 10 | > 10 | > 10 | > 10 | > 10 | > 10 | > 10 | > 10 | > 10 | > 10 | > 10
NS(=O)(=O)c1ccc(NC(=O)Cc2ccccc2)cc1 [4-(2-Phenylacetamido)Benzenesulfonamide] | > 10 | > 10 | > 10 | > 10 | > 10 | > 10 | > 10 | > 10 | > 10 | > 10 | > 10 | > 10 | > 10 | > 10
Cl.NC1=CCCN1Cc1nc(O)nc(O)c1Cl [Tipiracil] | > 10 | > 10 | > 10 | > 10 | > 10 | > 10 | > 10 | > 10 | > 10 | > 10 | > 10 | > 10 | > 10 | > 10
O=C(C(=O)c1ccc(Br)cc1)c1ccc(Br)cc1 [4,4'-Dibromobenzil] | > 10 | > 10 | > 10 | > 10 | > 10 | > 10 | > 10 | > 10 | > 10 | > 10 | > 10 | > 10 | > 10 | > 10
CC(C)(CCCCCCCCCCC(C)(C)CC(=O)O)CC(=O)O [MEDICA 16] | > 10 | > 10 | > 10 | > 10 | > 10 | > 10 | > 10 | > 10 | > 10 | > 10 | > 10 | > 10 | > 10 | > 10
CCCCCCCNC=O [N-Heptyl-Formamide] | > 10 | > 10 | > 10 | > 10 | > 10 | > 10 | > 10 | > 10 | > 10 | > 10 | > 10 | > 10 | > 10 | > 10
Cc1[nH]n(-c2ccccc2)c(=O)c1C1(C(F)(F)F)C(=O)N(c2ccccc2)C2=C1C(=O)CC(C)(C)C2 (stereo unspecified) | > 10 | > 10 | > 10 | > 10 | > 10 | > 10 | > 10 | > 10 | > 10 | > 10 | > 10 | > 10 | > 10 | > 10
C#CCN[C@@H]1CCc2ccccc21 [Rasagiline] | > 10 | > 10 | > 10 | > 10 | > 10 | > 10 | > 10 | > 10 | > 10 | > 10 | > 10 | > 10 | > 10 | > 10
CC(C)c1ccc2c(c1)c(SC(C)(C)C)c(CC(C)(C)C(=O)O)n2Cc1ccc(Cl)cc1 [MK-886] | 4.26 | > 10 | > 10 | > 10 | > 10 | > 10 | > 10 | > 10 | > 10 | > 10 | > 10 | > 10 | > 10 | > 10
OCC(CO)N[C@H]1C[C@](O)(CO)[C@@H](O)[C@H](O)[C@H]1O [Voglibose] | > 10 | > 10 | > 10 | > 10 | > 10 | > 10 | > 10 | > 10 | > 10 | > 10 | > 10 | > 10 | > 10 | > 10
CC1Cc2ccccc2N1NC(=O)c1ccc(Cl)c(S(N)(=O)=O)c1 (stereo unspecified) [Indapamide] | > 10 | > 10 | > 10 | > 10 | > 10 | > 10 | > 10 | > 10 | > 10 | > 10 | > 10 | > 10 | > 10 | > 10
C[C@H]1O[C@H](O[C@H]2[C@H](O)[C@@H](O)[C@@H](O[C@H]3[C@H](O)[C@@H](O)C(O)O[C@@H]3CO)O[C@@H]2CO)[C@H](O)[C@@H](O)[C@@H]1N[C@H]1C=C(CO)[C@@H](O)[C@H](O)[C@H]1O (mixture of isomers) [Acarbose] | > 10 | > 10 | > 10 | > 10 | > 10 | > 10 | > 10 | > 10 | > 10 | > 10 | > 10 | > 10 | > 10 | > 10
N#Cc1ccc(C2CCCc3cncn32)cc1 (stereo unspecified) [Fadrozole] | > 10 | > 10 | > 10 | > 10 | > 10 | > 10 | > 10 | > 10 | > 10 | > 10 | > 10 | > 10 | > 10 | > 10
COc1ccc2c(c1)c(CC(=O)O)c(C)n2C(=O)c1ccc(Cl)cc1 [Indomethacine] | > 10 | > 10 | > 10 | > 10 | > 10 | > 10 | > 10 | > 10 | > 10 | > 10 | > 10 | > 10 | > 10 | > 10
